Assay results taken from US4281009A, “Hydantoin derivatives” (Nippon Zoki Pharmaceutical Co., Ltd., priority 1978, dated 1981).

Key:
[1] = system: normal mice and SART stress mice; experiment: Analgesic effect, D'Amour-Smith method; type: in vivo, mice (ddY-strain male); details: Mus musculus
Procedure: 5.3. D'Amour-Smith method:
Groups each comprising 10 ddY-strain male normal mice and SART stress mice to which SART stress had been applied for 4 days were used. The root of the tail of the mouse to which black ink was applied was irradiated with infrared rays for up to 15 seconds. Time required till escape response was observed was measured. The effect was shown by the ratio of the mice in which an average value of the response time at 30, 60, 90 and 120 minutes after the administration of the compounds of the present invention or other comparative drugs was prolonged to at least 2 times as long as the time before the administration.

[2] = system: normal mice and SART stress mice; experiment: Analgesic effect, tail pressure method (Randall-Selitto's device); type: in vivo, mice (ddY-strain male); details: for change in vivo at 100 mg/kg / change in vivo at 200 mg/kg: Mus musculus; for change in vivo at 200 mg/kg: intraperitoneal 200 mg/kg; for Analgesic effect: intraperitoneal 50 mg/kg
Procedure: 5.1 Tail pressure method:
Randall-Selitto's device for determining analgesic effect by pressure stimulation was used. […]. The compounds of the present invention or other comparative drugs were given thereto and analgesic effect was determined. The effect was judged by measuring pressure applied 60 minutes after the intraperitoneal administration of the compounds of the present invention. The pressure thus measured was divided by a pressure before the administration. The value thus obtained was compared with that of a control group (to which 10 ml./Kg of 0.5% sodium salt of carboxymethylcellulose or 0.5% Tween 80 was given). When the compounds of the present invention were given perorally and other comparative drugs were given, an average of the pressure at 30, 60, 90 and 120 minutes after the administration was employed for evaluating the effect.

ddY-strain male mice = experiment: Effect of prolongation of sleeping time (hexobarbital); type: in vivo; details: for change in vivo at 100 mg/kg / change in vivo at 300 mg/kg: Mus musculus, ip; for change in vivo at 100 mg/kg: 100 mg/kg intraperitoneal; for change in vivo at 300 mg/kg: 300 mg/kg intraperitoneal; for Effect of prolongation of sleeping time: 50 mg/kg intraperitoneal
Procedure: 7. Effect of prolongation of sleeping time:
Groups of mice each comprising 10 ddY-strain male mice were used. Sodium salt of hexobarbital was given intraperitoneally. Thereafter, the period of time in which righting reflex disappeared was measured. The effect was evaluated on the basis of prolongation of time of disappearance of righting reflex by the intraperitoneal administration of the compounds of the present invention as compared with control mice.

[3] = Acute toxicity test (LD50, Litchfield-Wilcoxon), mice; details: mouse, in vivo, ip, intraperitoneal
Procedure: (§1) Toxicity tests were carried out by intraperitoneal administration of the compound of the present invention to groups each comprising 10 ICR-strain mice and SD-strain rats. LD50 was calculated by the Litchfield-Wilcoxon method based on the number of death 72 hours after the administration.

[4] = Acute toxicity test (LD50, Litchfield-Wilcoxon), rats; details: rat, in vivo, ip, intraperitoneal
Procedure: as §1

[5] = system: normal mice and SART stress mice; experiment: Analgesic effect, acetic acid writhing method; type: in vivo; details: Mus musculus, sc, 100 mg/Kg subcutaneously
Procedure: 5.2. Acetic acid writhing method: 0.1 ml./10 g of isotonic sodium chloride solution containing 0.7% acetic acid was given intraperitoneally to groups of mice each comprising 5 normal mice and 5 SART stress mice to which SART stress had been applied for 8 days. Writhing syndromes number appeared for 15 minutes after the administration was measured. The effect was evaluated by giving 100 mg/Kg of the compounds of the present invention or DPH subcutaneously and comparing the writhing syndromes number of the mice with that of control mice.

[6] = ip, 1 h, SART stress mice, intraperitoneal 100 mg/kg, 60 minutes
[7] = ip, 1 h, normal mice, intraperitoneal 100 mg/kg, 60 minutes

Compound	change in vivo at 100 mg/kg (ddY-strain male mice) [%]	change in vivo at 300 mg/kg (ddY-strain male mice) [%]	LD50 at 72 h ([3]; female) [mg/kg]	LD50 at 72 h ([3]; male) [mg/kg]	LD50 at 72 h ([4]; female) [mg/kg]	LD50 at 72 h ([4]; male) [mg/kg]	other results
Cc1c(N(C)C)c(=O)n(-c2ccccc2)n1C [Aminopyrine, reference compound]							responders at 100 mg/kg ([1]; po, SART stress mice, peroral 100 mg/kg): 50%; responders at 100 mg/kg ([1]; po, normal mice, peroral 100 mg/kg): 10%; change in vivo at 100 mg/kg ([2]; po, SART stress mice, peroral 100 mg/kg, average of 30, 60, 90 and 120 minutes): 58.9%; change in vivo at 100 mg/kg ([2]; po, normal mice, peroral 100 mg/kg, average of 30, 60, 90 and 120 minutes): 43.5%
O=C1NC(=O)C(c2ccccc2)(c2ccccc2O)N1 (stereo not drawn) [Compound 6, 5-(2-Hydroxyphenyl)-5-phenylhydantoin]	30.6	33.7	> 5000	> 5000	> 5000	> 5000	change in vivo at 100 mg/kg [2, 6]: 62.7%; change in vivo at 100 mg/kg [2, 7]: 38.1%
O=C1NC(=O)C(c2cccc(O)c2)(c2cccc(O)c2)N1 [Compound 8, 5,5-Bis(3-hydroxyphenyl)hydantoin]	16.9		1270	1350	1660	1800	change in vivo at 100 mg/kg [2, 6]: 54.7%; change in vivo at 100 mg/kg [2, 7]: 22.9%
CCCOc1ccccc1C1(c2ccccc2OCCC)NC(=O)NC1=O [Compound 9, 5,5-Bis(2-propoxyphenyl)hydantoin]		39	> 5000	> 5000	> 5000	> 5000	Effect of prolongation of sleeping time (ddY-strain male mice): 10.5%; change in vivo at 200 mg/kg ([2]; ip, 1 h, SART stress mice, 60 minutes): 74.4%; change in vivo at 200 mg/kg ([2]; ip, 1 h, normal mice, 60 minutes): 21.3%
CCCOc1ccc(C2(c3ccc(OCCC)cc3)NC(=O)NC2=O)cc1 [Compound 10, 5,5-Bis(4-propoxyphenyl)hydantoin]			3460	3600	3800 to 4000	4000	Effect of prolongation of sleeping time (ddY-strain male mice): 17.0%
COc1ccc(C2(c3ccc(O)cc3)NC(=O)NC2=O)cc1 (stereo not drawn) [Compound 11, 5-(4-Hydroxyphenyl)-5-(4-methoxyphenyl)hydantoin]			3000	> 3000	> 5000	> 5000	
O=C1NC(=O)C(c2ccccc2OCc2ccccc2)(c2ccccc2OCc2ccccc2)N1 [Compound 12, 5,5-Bis(2-benzyloxyphenyl)hydantoin]			> 5000	> 5000	> 5000	> 5000	
Cc1ccc(C2(c3ccc(C)cc3)NC(=O)NC2=O)cc1 [Compound 13, 5,5-Bis(4-methylphenyl)hydantoin]		14.1	> 5000	> 5000	> 5000	> 5000	
O=C1NC(=O)C(c2ccc(O)cc2)(c2ccc(O)c(O)c2)N1 (stereo not drawn) [Compound 14, 5-(3,4-Dihydroxyphenyl)-5-(4-hydroxyphenyl)hydantoin]	20.2		1200	1280	1480	1500	responders at 100 mg/kg ([1]; ip, SART stress mice, intraperitoneal 100 mg/kg): 60%; responders at 100 mg/kg ([1]; ip, normal mice, intraperitoneal 100 mg/kg): 30%; change in vivo at 100 mg/kg [2, 6]: 102%; change in vivo at 100 mg/kg [2, 7]: 42.6%; Analgesic effect ([2]; SART stress mice, 60 minutes): 78.3%; Analgesic effect ([2]; normal mice, 60 minutes): 35.2%; inhibition in vivo at 100 mg/kg ([5]; SART stress mice): 36.2%; inhibition in vivo at 100 mg/kg ([5]; normal mice): 5%
COc1ccc(C2(c3ccc(OC)cc3OC)NC(=O)NC2=O)cc1 (stereo not drawn) [Compound 15, 5-(2,4-Dimethoxyphenyl)-5-(4-methoxyphenyl)hydantoin]	15.4	23.9	> 5000	> 5000	> 5000	> 5000	
COc1ccc(C2(c3ccc(OC)c(OC)c3)NC(=O)NC2=O)cc1 (stereo not drawn) [Compound 16, 5-(3,4-Dimethoxyphenyl)-5-(4-methoxyphenyl)hydantoin]		20.8	> 5000	> 5000	> 5000	> 5000	
